Test results: ChEMBL document CHEMBL1126209, “Synthesis of a peptidyl 2,2-difluoro-3-aminopropionate” (Bioorg Med Chem Lett, 1992)
Residues, ends and D or L forms follow the SMILES beside them. *: point of attachment. Dansyl = CN(C)c1cccc2c(S(=O)(=O)*)cccc12; Cbz = O=C(OCc1ccccc1)*; CF3 = FC(F)(F)*

Biological target: T1, Neutrophil elastase (Homo sapiens, UniProt P08246)
T1 sequence (P08246 whole entry): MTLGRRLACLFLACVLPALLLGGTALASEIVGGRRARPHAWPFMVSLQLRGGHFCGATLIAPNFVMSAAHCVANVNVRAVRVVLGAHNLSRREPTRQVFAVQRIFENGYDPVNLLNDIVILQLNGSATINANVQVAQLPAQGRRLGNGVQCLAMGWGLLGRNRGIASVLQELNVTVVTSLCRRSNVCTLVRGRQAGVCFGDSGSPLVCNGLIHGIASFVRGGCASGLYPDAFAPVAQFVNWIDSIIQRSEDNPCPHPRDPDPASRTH
Assay: Compound was evaluated In vitro for inhibition of human neutrophil elastase

Q: `CC(C)[C@H](NC(=O)[C@@H]1CCCN1C(=O)[C@H](C)NC(=O)[C@H](C)NCC(=O)OC(C)(C)C)C(=O)C(F)(F)F` was tested. Which Ki did it give?
A: 44 nM

Q: `CC(C)[C@H](NC(=O)[C@@H]1CCCN1C(=O)[C@H](C)NC(=O)[C@H](C)NC(=O)OCc1ccccc1)C(=O)C(F)(F)F` (Cbz-AAPV-CF3) was tested. Which Ki did it give?
A: 1 nM

Q: For `CCOC(=O)C(F)(F)C(NC(=O)C1CCCN1C(=O)C(C)NC(=O)C(C)NC(=O)OC(C)(C)C)C(C)C` (centres undefined), which Ki is on record?
A: > 300000 nM

Q: `CC(C)[C@H](NC(=O)[C@@H]1CCCN1C(=O)[C@H](C)NC(=O)[C@H](C)NS(=O)(=O)c1cccc2c(N(C)C)cccc12)C(=O)C(F)(F)F` (Dansyl-AAPV-CF3) was tested. Which Ki did it give?
A: 10 nM
